Laboratory results reported in patent publication US9950071B2, “Hybrid anticancer prodrug simultaneously producing cinnamaldehyde and quinone methide and method for preparing same” (INDUSTRIAL COOPERATION FOUNDATION CHONBUK NATIONAL …, priority 2014, dated 2018).

How the values were obtained:
liver and heart tissues = test: organ damage, H&E and TUNEL staining of liver and heart tissues; format: in vivo, mouse; settings: 21 days, once per three days
DU145 cells = test: flow cytometry with Annexin V-FITC and propidium iodide; format: cell-based; settings: DU145, treated 24 hr, compared with cinnamaldehyde and Q1
Method: (§1) Further, in order to support the result of the DNA fragmentation assay, the DU145 and SW620 cells were cultured for 24 hr and treated with cinnamaldehyde, Q1 or QCA for 24 hr and then flow cytometry was performed by using Annexin V-FITC as a marker of apoptosis and propidium iodide (PI) as a marker for […], and the result was illustrated in FIGS. 15 and 16.

SW620 cells [1] = test: as above; format: cell-based; settings: SW620, treated 24 hr, compared with cinnamaldehyde and Q1
Method: as §1

[2] = QCA structure after hydrolysis in tumor environment (1H NMR); format: physicochemical
Method: In a tumor environment, in order to verify a structure of the QCA triggered by double stimulus, the QCA was cultured for 24 hr at pH 5.5 and verified through ^1H NMR and the structure of the QCA was illustrated in FIG. 5.

[3] = toxicity of QCA: ALT evaluation and H&E staining of liver and heart; format: in vivo; settings: 2 mg/kg, 10 days, once per 2 days
Method: In order to verify the stability of the QCA, after 2 mg/kg of the QCA was injected to the mouse for 10 days once per 2 days, alanine transaminase (ALT) evaluation and H&E staining of the liver and heart tissues were performed, and the result thereof was illustrated in FIGS. 24 and 25.

[4] = test system: prostate cancer cell line DU145; test: cell GSH level (Ellman's reagent); format: cell-based
Method: (§2) A prostate cancer cell line DU145, a colorectal cancer cell line SW620, and a fibroblast cell NIH3T3 were inoculated in a 6-well plate (5×10^5/well) to reach 80% confluency. The cell lines were treated with various compounds for 1.5 hr at 37° C. and then, cells were obtained and washed with PBS. Thereafter, the cells were lysed in ice in 40 μL of a Triton X-100 lysis buffer solution. After 20 min, the lysate was centrifuged with 9,000 g and 10 μL of a supernatant was mixed with 50 μL of an Ellman's reagent (0.5 mM DTNB). The amount of GSH was quantified by measuring an absorbance at 405 nm using a microplate reader (Biotek Instruments, Winooski, Vt.). In the treated cells, a percentage of the GSH content was compared with the base GSH content measured in untreated cells, and the result was illustrated in FIG. 7.

fibroblast cell NIH3T3 = test: cell GSH level (Ellman's reagent); format: cell-based; settings: NIH3T3, 1.5 hr at 37° C., compared with untreated cells
Method: as §2

[5] = test system: colorectal cancer cell line SW620; test: cell GSH level (Ellman's reagent); format: cell-based
Method: as §2

[6] = test system: procaspase-3 and PARP-1 in SW620 cells; test: immunoblot analysis; format: cell-based; settings: SW620, 8 hr, various concentrations
Method: (§3) The prostate cancer cell line DU145 and the colorectal cancer cell line SW620 (1×10^6/well) were treated with cinnamaldehyde or QCA for 8 hr at various concentrations and washed with new PBS twice. Proteins were extracted from the cells by using a lysis buffer solution. Electrophoresis was performed by using […] of a cell lysate in a […] and the proteins were transferred to a PVDF membrane (Millipore, Billerica, Mass.). A blot was cultured together with a PARP monoclonal antibody (Santa Cruz Biotechnology, Dallas, Tex.) or caspase-3 (Santa Cruz Biotechnology, Dallas, Tex.) and a HRP-coupled anti-goat antibody (Millipore, Billerica, Mass.) was used as a secondary antibody. An immunoblot signal was verified by using a chemiluminescent reagent (Pierce, Rockford, Ill.) of SuperSignal Ultra and the result thereof was illustrated in FIGS. 11 and 12.

[7] = test system: procaspase-3 and PARP-1 in DU145 cells; test: immunoblot analysis; format: cell-based; settings: DU145, 8 hr, various concentrations
Method: as §3

SW620 cells [8] = test: DNA fragmentation assay (electrophoresis); format: cell-based
Method: In order to verify an effect of the QCA on the DNA fragments, a DNA fragmentation assay of SW620 was performed. First, the DU145 and SW620 cells were cultured for 24 hr and then treated with 100 μm of cinnamaldehyde, 100 μm of Q1 (4-(1,3,2-dioxaborinan-2-yl)benzyl carbonate, and generating only quinone methide), and 25 μm, 50 μm, 100 μm of the QCA to isolate the DNA and the fragmentation of the nucleosomal DNA was observed by electrophoresis, and the result thereof was illustrated in FIG. 13.
Further, hereinabove, the DNA fragments of the SW620 treated with 100 μm of the QCA were analyzed over time and the result thereof was illustrated in FIG. 14.

[9] = test system: DU145, SW620 and NIH3T3 cells; test: cytotoxicity by MTT assay; format: cell-based; settings: 24 hr treatment, various amounts
Method: The cytotoxities of the QCA prepared in Example 1 and the QBCA prepared in Example 2 were measured by an MTT assay. In detail, a prostate cancer cell line DU145, a colorectal cancer cell line SW620, and a fibroblast cell NIH3T3 were inoculated in a 24-well plate with the density of 1×10^5 cells/well, respectively, and cultured for 24 hr to reach up to 90% confluency. The cells were treated with various amounts of QCA, QBCA, Q1, or cinnamaldehyde and cultured for 24 hr. 100 μL of the MTT solution was put each well and the cells were cultured for 4 hr. The generated formazan crystals were dissolved in 200 μL of dimethylsulfoxide. After 10 min of the culture, an absorbance at 570 nm was measured by using a micro plate reader (Biotek Instruments, Winooski, Vt.). A cell survival rate was determined by comparing absorbances of cells in a control group and QCA or QBCA-treated cells, and the results were illustrated in FIGS. 9 and 10.

[10] = test system: xenograft mouse model of DU145 and SW620; test: growth and size of tumor in xenograft model; format: in vivo; settings: for growth inhibition effect of the tumor / size of the tumor: 2 mg/kg through tail vein every 3 days
Method: In order to verify in vivo anticancer activity of the QCA, a tumor in a xenograft model was observed. First, cancer cells were injected to a side hypodermic tissue of mouse by using a xenograft mouse model of DU145 and SW620 and when the tumor after cell transplantation started to be touched small, cinnamaldehyde, Q1, and cinnamaldehyde and Q1, or QCA was administrated by 2 mg/kg though tail vein every 3 days, and then the size of the tumor in the mouse was measured and the result thereof was illustrated in FIG. 17. Further, different amounts of QCA were administrated to the mouse having the tumor and in order to compare the effect thereof, 2 mg/kg of camptotethin (CPT) as an anticancer agent which was commercialized was administrated in other mouse, and then the size of the tumor of the mouse was measured and the result thereof was illustrated in FIG. 18.

[11] = test system: prostate cancer cell line DU145; test: generation of reactive oxygen species by flow cytometry (DCFH-DA); format: cell-based; settings: DU145, treated 12 hr, compared with cinnamaldehyde
Method: The prostate cancer cell line DU145 (4×10^5) was inoculated in a 24-well culture plate and cultured for 24 hr, and treated with cinnamaldehyde or QCA for 12 hr. Cells were washed with a new medium twice and resuspended in a 1× binding buffer at a concentration of 1×10^5 cells/mL. 100 μL of the cell suspension was transferred to 5 mL of a culture tube and added with 5 μM of 2′,7′-dichlorofluorescein diacetate (DCFH-DA) and softly mixed. The cells were dark-cultured for 15 min at room temperature and added with 400 μL of the 1× binding buffer. The stained cells were measured by using a flow cytometry (FACS Caliber, Becton Dickinson, San Jose, Calif.) and the result was illustrated in FIG. 8. A total of 1.5×10^4 cells per sample were analyzed.

SW620 tumor mouse model = test: histologic examination of tumor (H&E and TUNEL staining); format: in vivo; settings: 21 days, once per three days
Method: In order to verify the apoptosis induced by the QCA, in a SW620 tumor mouse model, H&E staining of the tumor was performed after administrating cinnamaldehyde, Q1, the cinnamaldehyde and the Q1, or QCA for 21 days once per three days, and the result thereof was illustrated in FIG. 20. Further, terminal deoxynucleotidyl transferase dUTP nick end labeling (TUNEL) staining of the tumor was performed by the same method, and the result thereof was illustrated in FIG. 21.

tumor lysate = tumor lysate analysis by LC-MS (generation of QM and cinnamaldehyde); format: in vivo, mouse
Method: In the tumor, in order to verify whether to generate the QM and the cinnamaldehyde in the tumor, a tumor lysate was analyzed by LC-MS after 22 days and the result thereof was illustrated in FIG. 19.

[12] = in vivo; cited from earlier work

## CC1(COC(=O)OCc2ccc(B3OCCCO3)cc2)COC(/C=C/c2ccccc2)OC1 (stereo not shown) [QCA, 4-(1,3,2-dioxaborinan-2-yl)benzyl ((5-methyl-2-styryl-1,3-dioxan-5-yl)methyl)carbonate]
Liver and heart tissues
  organ damage (liver and heart, H&E and TUNEL): did not induce a particular organ damage
DU145 cells
  apoptosis (Annexin V / PI): faster apoptosis than the cinnamaldehyde and Q1-treated cells
SW620 cells [1]
  apoptosis (Annexin V / PI): faster apoptosis than the cinnamaldehyde and Q1-treated cells
[2]; H2O2-mediated, peaks 6.9 and 6.4 ppm
  boronate oxidation and formation of hydroxybenzyl alcohol (1H NMR): formation of hydroxybenzyl alcohol and oxidation of H2O2-mediated boronate were verified
[2]; cultured 24 hr at pH 5.5, aldehyde peak 9.4 ppm
  release of cinnamaldehyde by acetal bond cleavage (1H NMR): cinnamaldehyde generated while an acetal bond was broken
[3]
  evidence of toxicity accumulated in the liver and the heart (H&E): not observed
  serum ALT level compared with the untreated mouse: a little difference
[4]; DU145, 50 μM
  GSH level at 50 μM: Most of GSH was depleted
[4]; DU145, 100 μM
  further reduction of the GSH at 100 μM: not further observed
[4]; DU145, 1.5 hr at 37° C., compared with untreated cells
  GSH level: significantly reduced in a dose-dependent manner
Fibroblast cell NIH3T3
  GSH level: no effect
[5]; SW620, 50 μM
  GSH level at 50 μM: Most of GSH was depleted
[5]; SW620, 100 μM
  further reduction of the GSH at 100 μM: not further observed
[5]; SW620, 1.5 hr at 37° C., compared with untreated cells
  GSH level: significantly reduced in a dose-dependent manner
[6]
  expression of PARP-1: concentration-dependently reduced
  expression of procaspase-3: concentration-dependently reduced
[7]
  expression of PARP-1: concentration-dependently reduced
  expression of procaspase-3: concentration-dependently reduced
SW620 cells [8]; SW620, 100 μm QCA, over time
  amount of the DNA fragments over time: gradually increased in a concentration and time-dependent manner
SW620 cells [8]; SW620, QCA 25, 50, 100 μm vs 100 μm cinnamaldehyde and 100 μm Q1
  DNA fragments (nucleosomal DNA ladder): more DNA fragments than the cinnamaldehyde and the Q1
[9]
  cytotoxicity (cell survival rate, MTT): increased according to a concentration
[10]
  growth inhibition effect of the tumor / size of the tumor: significantly smaller size of the tumor
[10]; QCA 1 mg/kg or less
  anticancer activity (size of the tumor): a different anticancer activity was not shown
[10]; QCA 2 mg/kg, compared with 2 mg/kg CPT
  anticancer activity (size of the tumor): prominent anticancer activity
[11]
  apoptosis / cell toxicity by ROS generation (FIG. 8): much higher cell toxicity than the cinnamaldehyde
SW620 tumor mouse model
  apoptosis in tumor tissue (H&E, TUNEL): apoptosis of no-nuclear cells was widely shown
Tumor lysate; liver, after 22 days
  QM and cinnamaldehyde in the liver: not detected
Tumor lysate; tumor lysate after 22 days
  GSH value in tumor lower than the tumor of the untreated mouse: up to 38%
Tumor lysate; tumor lysate after 22 days, new peak same as cinnamaldehyde treatment
  generation of cinnamaldehyde in the tumor: cinnamaldehyde was generated

## O=CC=Cc1ccccc1 [cinnamaldehyde]
[2]; 72 hr, neutral pH, without H2O2
  change after culture at neutral pH without H2O2: any change was not observed
[12]
  half-life: less than 1.5 hr
[10]
  growth inhibition effect of the tumor / size of the tumor: slight

## CC1(COC(=O)OCc2ccc(B3OCCCO3)cc2)COC(/C=C/c2ccccc2OC(=O)c2ccccc2)OC1 (stereo not shown) [QBCA, 4-(1,3,2-dioxaborinan-2-yl)benzyl ((5-methyl-2-(2-benzoyloxyphenyl)vinyl-1,3-dioxan-5-yl)methyl)carbonate]
[9]
  cytotoxicity (cell survival rate, MTT): increased according to a concentration

## 4-(1,3,2-dioxaborinan-2-yl)benzyl carbonate [Example Q1, reference compound]
[10]
  growth inhibition effect of the tumor / size of the tumor: slight
